In US20210040074A1 (The United States of America,as represented by the …, priority 2018, published 2021):
Values joined by “and” are separate entries in the source; they are usually repeats but may differ in a detail not shown here. Equal entries are not always repeated.

Experiments:
D4R [1] = molecular target: T1, D4R (Homo sapiens, UniProt P21917); test: D4R β-arrestin BRET assay; conditions: 50 μM compound
T1 sequence (P21917 1-419): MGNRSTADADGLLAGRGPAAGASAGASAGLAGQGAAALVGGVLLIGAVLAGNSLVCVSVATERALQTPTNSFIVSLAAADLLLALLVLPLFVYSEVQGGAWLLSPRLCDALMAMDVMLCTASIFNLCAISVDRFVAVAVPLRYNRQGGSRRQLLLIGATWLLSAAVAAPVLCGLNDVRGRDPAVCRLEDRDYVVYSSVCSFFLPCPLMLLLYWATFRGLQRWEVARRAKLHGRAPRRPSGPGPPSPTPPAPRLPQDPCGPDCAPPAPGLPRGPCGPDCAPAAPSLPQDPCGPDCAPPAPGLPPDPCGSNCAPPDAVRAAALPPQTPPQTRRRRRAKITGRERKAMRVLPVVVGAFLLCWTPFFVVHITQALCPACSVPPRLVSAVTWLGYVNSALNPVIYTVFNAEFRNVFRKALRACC
Procedure: (§1) Bioluminescence Resonance Energy Transfer (BRET) Assays. Experiments were performed in HEK239 cells transiently transfected with D1R-RLuc8 and β-arrestin-mVenus (β-arrestin BRET) or Gαs-mVenus+β1+γ2 (Gs BRET) using the polyethylenimine (PEI) transfection method. […] Appropriate amounts of DNA were combined with 3 μg/μL PEI per μg of DNA in nonsupplemented DMEM and incubated with the cells overnight. Experiments were performed 48 hours post-transfection. On experiment day, cells were collected and resuspended in Dulbecco's Phosphate-Buffered Saline (DPBS) with Ca2+ and Mg2++0.2 mM sodium metabisulfite+5.5 mM glucose.

human D1R [2] = molecular target: T2, human D1R (Homo sapiens, UniProt P21728); test: D1 cAMP accumulation assay (D1R-HEK293 cells, DiscoverX HitHunter); conditions: for increase in dopamine potency for cAMP accumulation: 50 μM compound vs DA alone; for agonist activity for cAMP accumulation: compound alone; for D1 cAMP: DA + 50 μM PAM, Fold Chg EC50: fold change of dopamine EC50, 50 μM compound
T2 sequence (P21728 whole entry): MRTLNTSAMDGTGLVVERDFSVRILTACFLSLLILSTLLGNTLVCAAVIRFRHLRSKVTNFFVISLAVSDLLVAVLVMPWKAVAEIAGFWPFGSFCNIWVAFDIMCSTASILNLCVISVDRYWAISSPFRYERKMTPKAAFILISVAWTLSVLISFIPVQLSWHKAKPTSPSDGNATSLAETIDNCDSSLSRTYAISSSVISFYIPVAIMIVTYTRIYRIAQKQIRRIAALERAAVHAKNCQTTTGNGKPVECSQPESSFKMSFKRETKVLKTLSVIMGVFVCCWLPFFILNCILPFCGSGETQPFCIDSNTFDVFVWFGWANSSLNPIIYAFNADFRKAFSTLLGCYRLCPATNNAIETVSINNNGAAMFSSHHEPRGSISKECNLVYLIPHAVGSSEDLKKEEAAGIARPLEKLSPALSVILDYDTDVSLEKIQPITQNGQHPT
Procedure: (§2) cAMP Accumulation Assay. Assays were performed on D1R-HEK293 (Codex Biosolutions, Gaithersburg, Md.) cells stably expressing the human D1R. HEK293 cell lines were maintained in Dulbecco's modified Eagles medium, supplemented with 10% fetal bovine serum, 100 U/ml penicillin, 100 μg/ml streptomycin, 1 mM sodium pyruvate, and 250 μg/ml G418 and incubated at 37° C., 5% CO2, and 90% humidity. […] After 18-24 h incubation at 37° C., 5% CO2, and 90% humidity, the media was removed and replaced with 5 μL/well PBS. […] Briefly, antibody and working solution was added to each well according to the manufacturer's protocol, and incubated in the dark at room temperature for 60 min. Following incubation, enzyme acceptor reagent was added to the plates and luminescence (RLU) was measured (FDSS μCell, Hamamatsu Photonics K. K., Bridgewater, N.J.) following a 3 h incubation in the dark at room temperature.

D5 [3] = molecular target: T3, D5 (Homo sapiens, UniProt P21918); test: D5 cAMP assay; conditions: fold change of dopamine EC50, 50 μM compound
T3 sequence (P21918 whole entry): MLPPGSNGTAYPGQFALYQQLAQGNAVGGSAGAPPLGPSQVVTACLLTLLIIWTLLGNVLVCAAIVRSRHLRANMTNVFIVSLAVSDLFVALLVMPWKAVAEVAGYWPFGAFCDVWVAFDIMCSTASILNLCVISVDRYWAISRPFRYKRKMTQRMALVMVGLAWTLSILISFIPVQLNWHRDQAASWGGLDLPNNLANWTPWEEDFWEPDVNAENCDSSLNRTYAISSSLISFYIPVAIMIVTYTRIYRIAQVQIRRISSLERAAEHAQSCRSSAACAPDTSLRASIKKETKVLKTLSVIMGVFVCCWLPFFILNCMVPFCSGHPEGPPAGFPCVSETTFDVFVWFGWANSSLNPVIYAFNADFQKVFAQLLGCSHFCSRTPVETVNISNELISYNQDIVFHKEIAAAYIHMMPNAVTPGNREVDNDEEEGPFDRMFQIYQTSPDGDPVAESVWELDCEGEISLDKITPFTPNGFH
Procedure: as §2

[4] = tested on: non D1R containing control cells; test: Forskolin stimulated cAMP accumulation in non D1R containing control cells; format: cell-based
human D1R [5] = molecular target: T2, human D1R; test: D1R β-arrestin recruitment assay (DiscoverX PathHunter, CHO-K1 cells); design: Emax: dose or concentration left out as unconfirmed; conditions: for increase in dopamine potency (EC50) for β-arrestin recruitment to D1R: 50 μM compound vs DA alone; for Emax: CHO-K1, read-out: increase in dopamine efficacy (Emax) for β-arrestin recruitment to D1R; for agonist activity of PAM alone, β-arrestin recruitment: concentration response with the PAM, no dopamine; for effect on potency of D1R partial agonists: fenoldopam, apomorphine, SKF38393, SKF77434; for D1 Beta-Arrestin: DA + 50 μM PAM, Fold Chg EC50: fold change of dopamine EC50, 50 μM compound; for log β (modulatory effect on dopamine efficacy) / β (modulatory effect on dopamine efficacy): operational model of allosterism; for increase in SKF77434-stimulated response: partial agonist SKF77434 + PAM, text says cAMP accumulation, FIG. 5D legend β-arrestin; for increase in efficacy of SKF38393 / increase in efficacy of apomorphine / increase in efficacy of fenoldopam: β-arrestin recruitment; for increase in efficacy of SKF38393: G-protein biased partial agonist SKF38393 + PAM; for increase in efficacy of apomorphine: partial agonist apomorphine + PAM; for increase in efficacy of fenoldopam: partial agonist fenoldopam + PAM
D2R = D2R (Homo sapiens, UniProt P14416); test: D2R β-arrestin BRET assay; conditions: 50 μM compound
D2R, sequence (P14416 whole entry): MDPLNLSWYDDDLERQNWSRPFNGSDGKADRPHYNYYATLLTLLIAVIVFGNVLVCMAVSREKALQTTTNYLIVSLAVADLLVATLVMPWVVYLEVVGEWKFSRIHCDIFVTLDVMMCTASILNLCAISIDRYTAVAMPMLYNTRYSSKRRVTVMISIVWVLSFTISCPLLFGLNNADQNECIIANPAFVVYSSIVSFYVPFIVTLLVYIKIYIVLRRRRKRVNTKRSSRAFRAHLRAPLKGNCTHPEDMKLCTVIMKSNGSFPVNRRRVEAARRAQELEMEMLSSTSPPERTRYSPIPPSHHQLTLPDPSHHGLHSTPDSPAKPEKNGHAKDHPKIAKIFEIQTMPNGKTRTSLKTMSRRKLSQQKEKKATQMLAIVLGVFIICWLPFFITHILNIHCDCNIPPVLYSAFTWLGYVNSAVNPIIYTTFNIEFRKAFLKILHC
Procedure: as §1

D4R [6] = molecular target: T1, D4R; test: D4 β-arrestin recruitment assay (DiscoverX PathHunter, CHO-K1 cells); format: cell-based; design: inferred from the same PathHunter system described for D1R and D5R; host or cells: CHO-K1; conditions: for D4 Beta-Arrestin: DA + 50 μM PAM, Fold Change EC50: fold change of dopamine EC50, 50 μM compound
D3R = D3R (Homo sapiens, UniProt P35462); test: D3R β-arrestin BRET assay; conditions: 50 μM compound
D3R, sequence (P35462 whole entry): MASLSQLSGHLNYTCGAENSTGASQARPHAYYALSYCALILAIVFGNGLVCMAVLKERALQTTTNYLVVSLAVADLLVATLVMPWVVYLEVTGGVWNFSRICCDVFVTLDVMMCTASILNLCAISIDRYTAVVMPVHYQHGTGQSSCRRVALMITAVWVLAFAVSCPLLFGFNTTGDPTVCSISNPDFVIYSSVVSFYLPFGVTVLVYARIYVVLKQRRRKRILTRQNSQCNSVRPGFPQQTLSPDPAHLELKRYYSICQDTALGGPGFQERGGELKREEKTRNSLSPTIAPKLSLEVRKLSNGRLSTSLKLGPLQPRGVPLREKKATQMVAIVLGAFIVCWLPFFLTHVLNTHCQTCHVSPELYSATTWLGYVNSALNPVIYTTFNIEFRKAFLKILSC
Procedure: as §1

D5 [7] = molecular target: T3, D5; test: D5R β-arrestin recruitment assay (DiscoverX PathHunter, CHO cells); format: cell-based; design: host or cells: CHO-K1; conditions: for D5 Beta-Arrestin: DA + 50 μM PAM, Fold Change EC50: fold change of dopamine EC50, 50 μM compound; for agonist response of PAM alone at D5R: in the absence of DA
Summary of the method: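 CHO PathHunter cells, 18-24 h after plating, received compound in PBS with 0.2 mM sodium metabisulfite for 90 min at 37° C. Detection reagent then 60 min dark at room temperature; luminescence read. PAMs also tested without DA agonist.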

human D1R [8] = molecular target: T2, human D1R; test: [3H]-SCH23390 radioligand competition binding (HEK293 D1R membranes), incl. allosteric ternary complex model; conditions: for log α / α (binding cooperativity between PAM and dopamine): allosteric ternary complex model; for effect on [3H]-SCH23390 binding: compound alone, up to 50 μM; for leftward shift of dopamine competition curve (increase in dopamine affinity): dopamine competition with [3H]-SCH23390, increasing concentrations of compound; for decrease of [3H]-SCH23390 binding: highest concentration tested, 50 μM
β2AR = β2AR (Homo sapiens, UniProt P07550); test: β2AR β-arrestin BRET assay; conditions: 50 μM compound
β2AR, sequence (P07550 whole entry): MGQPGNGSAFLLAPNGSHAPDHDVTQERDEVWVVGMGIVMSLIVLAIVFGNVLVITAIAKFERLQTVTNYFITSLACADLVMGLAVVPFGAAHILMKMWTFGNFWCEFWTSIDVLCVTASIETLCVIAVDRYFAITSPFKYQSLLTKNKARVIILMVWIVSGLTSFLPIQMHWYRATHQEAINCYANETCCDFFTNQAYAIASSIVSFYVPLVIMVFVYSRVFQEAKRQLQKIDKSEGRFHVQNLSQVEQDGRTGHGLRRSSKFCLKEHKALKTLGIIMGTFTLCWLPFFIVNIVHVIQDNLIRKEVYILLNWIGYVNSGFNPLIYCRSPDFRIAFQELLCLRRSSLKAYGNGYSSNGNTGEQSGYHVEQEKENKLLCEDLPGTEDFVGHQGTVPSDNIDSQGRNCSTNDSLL
Procedure: as §1

Compound: Cn1c2ccccc2c(=O)c2c(=O)n(-c3ccccc3)c(C3CCCCC3)nc21 [Compound 1, 2-Cyclohexyl-10-methyl-3-phenylpyrimido[4,5-b]quinoline-4,5(3H,10H)-dione]
- potentiation of dopamine response at D4R (D4R [1]): Neither PAM produced any measurable potentiation
- increase in dopamine potency for cAMP accumulation (human D1R [2]): 3 fold
- agonist activity for cAMP accumulation (human D1R [2]): Neither compound 1 (FIGS. 3A and 3B) nor compound 28 (FIGS. 3C and 3D) demonstrated any agonist activity
- D1 cAMP: DA + 50 μM PAM, Fold Chg EC50 (human D1R [2]): 1.83
- D5 cAMP: DA + 50 μM PAM, Fold Change EC50 (D5 [3]): 2.14
- effect on forskolin stimulated cAMP accumulation [4]: does not significantly increase
- Kb (human D1R [5]): 460 nM
- increase in dopamine potency (EC50) for β-arrestin recruitment to D1R (human D1R [5]): 7 fold and 5 fold and 4.6 fold
- Emax (human D1R [5]): 20%
- Dopamine D1-β-arrestin Assay: DA + 50 μM PAM, Fold Change EC50 (human D1R [5]; Table 5, 50 μM compound): 4.64
- agonist activity of PAM alone, β-arrestin recruitment (human D1R [5]): Neither PAM displayed any measurable agonist activity
- effect on potency of D1R partial agonists (human D1R [5]): Neither PAM altered the potency
- D1 Beta-Arrestin: DA + 50 μM PAM, Fold Chg EC50 (human D1R [5]): 4.64
- log β (modulatory effect on dopamine efficacy) (human D1R [5]): 0.41±0.06
- β (modulatory effect on dopamine efficacy) (human D1R [5]): 2.57
- increase in SKF77434-stimulated response (human D1R [5]): 130%
- increase in efficacy of SKF38393 (human D1R [5]): 111%
- increase in efficacy of apomorphine (human D1R [5]): 95%
- increase in efficacy of fenoldopam (human D1R [5]): 48%
- potentiation of dopamine response at D2R (D2R): Neither PAM produced any measurable potentiation
- Dopamine D4-β-arrestin Assay: DA + 50 μM PAM, Fold Change EC50 (D4R [6]; Table 7, 50 μM compound): 1.06
- D4 Beta-Arrestin: DA + 50 μM PAM, Fold Change EC50 (D4R [6]): 1.06
- potentiation of dopamine response at D3R (D3R): Neither PAM produced any measurable potentiation
- fold change of dopamine EC50 for β-arrestin recruitment to D5R (D5 [7]; 50 μM compound): 2.5 fold
- Dopamine D5-β-arrestin Assay: DA + 50 μM PAM, Fold Change EC50 (D5 [7]; Table 6, 50 μM compound): 2.56
- D5 Beta-Arrestin: DA + 50 μM PAM, Fold Change EC50 (D5 [7]): 2.56
- agonist response of PAM alone at D5R (D5 [7]): Neither PAM produced an agonist response
- Kb (human D1R [8]): 540 nM
- log α (human D1R [8]): 0.49±0.07
- α (binding cooperativity between PAM and dopamine) (human D1R [8]): 3.09
- effect on [3H]-SCH23390 binding (human D1R [8]): no displacement
- leftward shift of dopamine competition curve (increase in dopamine affinity) (human D1R [8]): ~3 fold
- decrease of [3H]-SCH23390 binding (human D1R [8]): ~17%
- potentiation of epinephrine response at β2AR (β2AR): Neither PAM produced any measurable potentiation

Compound: CC(C)(C)C1CCc2c(sc(NC(=O)c3ccncc3)c2C(N)=O)C1 (centres unmarked) [Compound 28]
- potentiation of dopamine response at D4R (D4R [1]): Neither PAM produced any measurable potentiation
- increase in dopamine potency for cAMP accumulation (human D1R [2]): 5 fold and 4 fold
- agonist activity for cAMP accumulation (human D1R [2]): Neither compound 1 (FIGS. 3A and 3B) nor compound 28 (FIGS. 3C and 3D) demonstrated any agonist activity
- D1 cAMP: DA + 50 μM PAM, Fold Chg EC50 (human D1R [2]): 2.93
- D5 cAMP: DA + 50 μM PAM, Fold Change EC50 (D5 [3]): 1.63
- effect on forskolin stimulated cAMP accumulation [4]: no increase
- Kb (human D1R [5]): 5400 nM
- increase in dopamine potency (EC50) for β-arrestin recruitment to D1R (human D1R [5]): 8 fold
- Emax (human D1R [5]): 34%
- agonist activity of PAM alone, β-arrestin recruitment (human D1R [5]): Neither PAM displayed any measurable agonist activity
- effect on potency of D1R partial agonists (human D1R [5]): Neither PAM altered the potency
- D1 Beta-Arrestin: DA + 50 μM PAM, Fold Chg EC50 (human D1R [5]): 8.29
- log β (modulatory effect on dopamine efficacy) (human D1R [5]): 0.32±0.1
- β (modulatory effect on dopamine efficacy) (human D1R [5]): 2.09
- increase in SKF77434-stimulated response (human D1R [5]): 96%
- increase in efficacy of SKF38393 (human D1R [5]): 151%
- increase in efficacy of apomorphine (human D1R [5]): 134%
- increase in efficacy of fenoldopam (human D1R [5]): 83%
- potentiation of dopamine response at D2R (D2R): Neither PAM produced any measurable potentiation
- D4 Beta-Arrestin: DA + 50 μM PAM, Fold Change EC50 (D4R [6]): 1.72
- potentiation of dopamine response at D3R (D3R): Neither PAM produced any measurable potentiation
- D5 Beta-Arrestin: DA + 50 μM PAM, Fold Change EC50 (D5 [7]): 1.25
- agonist response of PAM alone at D5R (D5 [7]): Neither PAM produced an agonist response
- Kb (human D1R [8]): 5370 nM
- log α (human D1R [8]): 0.82±0.11
- α (binding cooperativity between PAM and dopamine) (human D1R [8]): 6.61
- effect on [3H]-SCH23390 binding (human D1R [8]): complete inhibition
- leftward shift of dopamine competition curve (increase in dopamine affinity) (human D1R [8]): ~7 fold
- decrease of [3H]-SCH23390 binding (human D1R [8]): ~66%
- potentiation of epinephrine response at β2AR (β2AR): Neither PAM produced any measurable potentiation

Compound: CC(C)(C)C1CCc2c(sc(NC(=O)c3cccnc3)c2C(N)=O)C1 (centres unmarked) [Example 2.3, N-(6-(Tert-butyl)-3-carbamoyl-4,5,6,7-tetrahydrobenzo[b]thiophen-2-yl)nicotinamide]
- melting point: 195 to 209 °C
